Test results from US20030104079A1, “Skin tissue regeneration promoters comprising ginsenoside Rb1” (Japan Science and Technology Corporation, Japan, priority 2000, published 2003).

What was measured:
[1] = test system: open wound of rat skin; experiment: Open wound healing by external or topical application to skin (propet ointment); format: in vivo, rats; details: for action to promote wound healing: sprayed or spread on the local open wound of rats' skin, inventors' experiences
Excerpt: For that purpose, for example, by using Wistar male rats (body weight about 300 g), the punch biopsies with diameter 6 mm were made in the dorsal region of animals after shaving under inhalation anesthesia to prepare 3 regions of open wound. Among them, 0.1 g of ophthalmic white Vaseline (Propet) containing 0.01% by weight or 0.001% by weight of ginsenoside Rb1 was spread once for every day in two regions, and in the remaining open wound, the equal amount of ophthalmic white Vaseline (propet) was spread. Nine days after preparing open wound, the skin including wound regions was photographed. Further, we have examined the effects of external or topical cutaneous spread of 0.0001% by weight, 0.00001% by weight or 0.000001% by weight of ginsenoside Rb1 by the same procedure. Experimental animals were euthanized by anesthetia immediately before photographing, then wound regions were dissected out after photographing or after dissecting out wound regions, photographing was performed. Thereafter, the wound region tissues were stored in the fixative. FIG. 5 and FIG. 6 are photographs in place of drawings.
The punch biopsy with diameter 6 mm was performed in the dorsal 6 regions of each animal under inhalation anesthesia to prepare open wound. Thereafter, 0.1 g of propet (ophthalmic white vaseline) containing ginsenoside Rb1 at the concentrations of 0.0001% by weight (10^−4% by weight), 0.00001% by weight (10^−5% by weight), 0.000001% by weight (10^−6% by weight), 0.0000001% by weight (10^−7% by weight) and 0.00000001% by weight (10^−8% by weight), respectively, was applied externally, once a day, for 9 days on each open wound. The equal amount of propet alone was applied externally or topically in the control animals. Then, immediately after euthanasia by anesthetization, the skin containing the open wound was dissected out and photographed. The collected skin tissue was preserved in a fixative. FIG. 12 is a photograph in place of drawing.
In each case, there are three wounds on the left side and three wounds on the right side, totally 6 marks of open wounds.
In the experimental cases hereinbefore explained, an area of open wound (flair region) applied externally only with propet is set as a denominator and an area of open wound administered externally with ginsenoside Rb1 at concentrations from 10^−4% by weight to 10^−8% by weight is set as a numerator, and ratio thereof is calculated. In FIG. 13, n=3 and single asterisk (*) indicates significant difference, P<0.05, and two asterisks (**) indicate significant difference, P<0.01. Statistical test was performed according to Scheffe's post hoc test.
Details of dihydroginsenoside Rb1 is described in the specification of PCT/JP00/04102 (Brain cell or nerve cell protecting agents comprising ginseng). The punch biopsy with diameter 6 mm was performed at 5 places in the dorsal region of rats (n=4) under inhalation anesthesia to prepare open wound. Thereafter, 0.1 g of propet containing dihydroginsenoside Rb1 at concentrations of 0.0001% by weight (10^−4% by weight), 0.00001% by weight (10^−5% by weight), 0.000001% by weight (10^−6% by weight) and 0.0000001% by weight (10^−7% by weight), respectively, was applied topically or externally, once a day, for 9 days onto each open wound. The equal amount of propet alone was applied externally or topically in the control animals. Then, immediately after euthanasia by anesthetization, the skin containing the open wound was dissected out and photographed. The collected skin tissue was preserved in a fixative. FIG. 14 is a photograph in place of drawing. In FIG. 14, four cases are shown, and from the upper column, the first case, the second case, the third case and the fourth case are shown.

[2] = test system: cultured nerve cells (neurons); experiment: SNP-induced apoptosis of cultured nerve cells, MAP2 immunoblotting; format: cell-based, rats
Excerpt: We (Sakanaka and Tanaka) had reported that when cultured nerve cells were exposed for a short time to sodium nitroprusside, apoptosis or apoptosis-like cell death of neurons is induced (Toku, K. et al., J. Neurosci. Res., 53, 415-425, 1998). […] We have examined the neuroprotective action of dihydroginsenoside Rb1 using the same experimental system.
Nerve cells were isolated from the cerebral cortices of fetal rats at gestation day 17 by using trypsin EDTA and seeded onto 24 well plate coated with poly-L-lysine. After incubating the cells in Dulbecco's modified Eagle's medium (DMEM) containing 10% fetal calf serum for 16 hours, the culture medium was replaced with a serum-free medium for neuronal culture containing insulin, transferrin, etc. and the neurons were cultured for 3 or 4 days. On day 3 or 4 of culture, sodium nitroprusside (SNP) at the concentration of 300 μM was added to the neuronal culture and incubated for 10 minutes. […] In order to quantify the survival rate of nerve cells or neurons, immunostained MAP2 band was analyzed with densitometry. […]
Nerve cells were isolated from cerebral cortices of fetal rats on gestation day 17 by using trypsin EDTA and seeded onto a 24 well plate(s) coated with poly-L-lysine. […] In order to quantify survival rate of nerve cells, immunostained MAP2 band was analyzed with densitometry.

[3] = Observation of administered animals for side effects; format: in vivo, rats; details: present experiments, animals carefully observed
Excerpt: The amount of administration of ginsenoside Rb1, which is used as the preparation(s) for external or topical application to skin or the preparation(s) for external or topical application to mucosa, is far smaller than the amount of intravenous administration.
Actually, as indicated in PCT/JP00/04102 (Brain cell or nerve cell protecting agents comprising ginseng), as far as directing treatment or therapy of cerebral infarction by continuous intravenous administration in a dose of […] (weighing 300 g), dihydroginsenoside Rb1 is thought to be a quite safe pharmaceutical composition. The amount of administration of ginsenoside Rb1, which is used as the preparation(s) for external or topical application to skin or the preparation(s) for external or topical application to mucosa, is far smaller than the amount of intravenous administration.

[4] = test system: cerebral infarct lesion; details: intravenous 6 pg/day-60 pg/day, rats weighing 300 g; PCT/JP00/04102; cited from earlier work

EGF: epidermal growth factor
action to promote wound healing [1]: inferior to the effects of continuous intravenous administration of ginsenoside Rb1

bFGF: basic fibroblast growth factor
action to promote wound healing [1]: inferior to the effects of continuous intravenous administration of ginsenoside Rb1

CC(C)CCC[C@](C)(O[C@@H]1O[C@H](CO[C@@H]2O[C@H](CO)[C@@H](O)[C@H](O)[C@H]2O)[C@@H](O)[C@H](O)[C@H]1O)[C@H]1CC[C@]2(C)[C@@H]1[C@H](O)C[C@@H]1[C@@]3(C)CC[C@H](O[C@@H]4O[C@H](CO)[C@@H](O)[C@H](O)[C@H]4O[C@@H]4O[C@H](CO)[C@@H](O)[C@H](O)[C@H]4O)C(C)(C)[C@@H]3CC[C@]12C [dihydroginsenoside Rb1]
ratio of open wound area to propet alone (FIG. 15) ([1]; 0.00001% by weight (10^−5% by weight) or less, n=4, Fisher's PLSD P<0.05): facilitated significantly wound healing | therapeutic effect on open wound in rats ([1]; 0.0001% by weight (10^−4% by weight)): trivial | area of open wound region relative to control ([1]; dihydroginsenoside Rb1 at 10^−5%, 10^−6% or 10^−7% by weight): ½-¼ | hair growth in wound healing region (FIG. 14) ([1]; low concentrations of dihydroginsenoside Rb1): obvious hair growth was observed | wound healing vs propet alone (FIG. 14) ([1]; propet containing 10^−5% to 10^−7% by weight (100 ng/g to 1 ng/g), once a day for 9 days, n=4): wound healing was obviously promoted | apoptosis or apoptosis-like cell death of neurons caused by SNP, MAP2 band (FIG. 16) ([2]; 0.01 fg/ml (lane 3) to 1 ng/ml (lane 7), SNP 300 μM 10 minutes, 16 hours after SNP): obviously inhibited | apoptosis or apoptosis-like cell death of nerve cells, MAP2 densitometry (FIG. 17) ([2]; 0.01 fg/ml to 1 ng/ml, n=5, P<0.001 / P<0.0001): significantly inhibited | side effect in administered animals [3]: no side effect was noted | therapeutic effect on brain infarction [4]: excellent therapeutic effect on brain infarction

PDGF
action to promote wound healing [1]: inferior to the effects of continuous intravenous administration of ginsenoside Rb1
